Here are results for one compound from PMC12534982 (Journal of Experimental & Clinical Cancer Research : CR, 2025).

What all share (assay type): cell-based, human
For data set [1], the system named is colorectal cancer cells. As to the kind of experiment: Clonogenic assay. How it is done:
Cancer cells (4 × 10^3) were cultured in 6-well plates in triplicate and treated with DMSO or NK-A 17E-233I (25 µM) for two weeks. Colonies were subsequently stained with a solution containing 0.5% crystal violet (#B21932.14; ThermoScientific) and 20% ethanol, followed by multiple washes with water. Plates were allowed to air dry overnight and were subsequently scanned using an Epson Perfection V850 Pro scanner (Kamera Express, Spain). The area of the wells occupied by cells was quantified utilizing the ImageJ plugin ColonyArea.

The subject of data set [2] is healthy fibroblasts and keratinocytes. As to the kind of experiment: Cell viability / morphology in healthy cells. The conditions noted are these: 25 µM, 48 h. From the text:
Brightfield images were captured using a Leica DMi8 microscope with a 10X or 20X objective (HC PL FLUOTAR 10X/0.45 or 20X/0.75) equipped with a Leica DFC9000GT camera, and processed with a Leica Application Suite X (LAS X) Life Science Microscope Software (v3.5.5.19976, RRID:SCR_013673).

The subject of data set [3] is colorectal cancer cell lines. As to the kind of experiment: DNA fiber assays. On the procedure:
Cancer cells were pulse-labeled with 20 µM iododeoxyuridine (IdU) in the dark at 37 °C for 20 min. Subsequently, the cells were washed twice with PBS and then pulse-labeled with 200 µM chlorodeoxyuridine (CldU) in the presence or absence of NK-A 17E-233I (25 µM) in the dark at 37 °C for 1 h. To assess fork restart in cancer cells following treatment, cells were pulse-labeled with 20 µM IdU for 10 min, after which NK-A 17E-233I (25 µM) was either added or no treatment was administered, followed by an additional 1 h of incubation. The cells were then washed twice with PBS and pulse-labeled with 200 µM CldU for 30 min. Following the labeling procedure, cells were washed twice with PBS, scrapped into PBS containing 0.1% Bovine Serum Albumin (BSA), pelleted, and resuspended in PBS with 0.1% BSA at a final concentration of 1.5 × 10^3 cells/µL. A volume of 2.5 µL of the cell suspension was spotted onto a positively charged slide and lysed with 7.5 µL of a spreading buffer (200 mM Tris–HCl, pH 7.5; 50 mM EDTA; 0.5% SDS) at room temperature for 8 min. The slides were then tilted at 45 ° to facilitate DNA spreading. After air-drying, the slides were fixed with ice-cold methanol/acetic acid (3:1) for 5 min, air-dried again, and stored at 4 °C.
The slides were rehydrated with PBS, denatured with 2.5 M HCl for 1 h, washed twice with PBS, and blocked with a blocking buffer (3% BSA; 0.1% Triton X-100 in PBS) for 40 min. Subsequently, the slides were incubated with a primary antibody mixture, including mouse anti-5-Bromo-2'-Deoxyuridine (anti-BrdU) recognizing IdU (#347580; Becton Dickinson, dilution 1:250) and rat anti-BrdU recognizing CldU (#6326; Abcam, dilution 1:250), diluted in a blocking buffer within a dark humid chamber at room temperature for 2.5 h.
For silencing, siNT (non-target, D-001810–10-20 On-TARGET plus Non-targeting pool, Dharmacon) (Horizon Discovery, Waterbeach, UK) and siPOLD2 (Smart pool, ON-TARGETplus Human POLD2 (5425) siRNA oligos directed against human POLD2), were used to transfect cells using RNAiMax Lipofectamine Reagent Mix (Life Technologies) according to the manufacturer’s protocol. 48 h post-transfection, the cells were harvested to evaluate the efficiency of gene silencing, which was estimated to be approximately 90% based on western blot analysis, for further experimental applications.
Afterwards, the slides were washed three times with PBS for 5 min each and incubated with secondary antibodies, anti-mouse Alexa Fluor 594 and anti-rat Alexa Fluor 488 (#A11005 and #A11006, respectively; Invitrogen, dilution 1:250), in a blocking buffer at room temperature in a dark humid chamber for 1 h. After three additional washes with PBS and air-drying, the slides were mounted with ProLong Gold Antifade Reagent (#P36930; Invitrogen) and stored at 4 °C until imaging. Images were acquired using an AF6000 Leica Fluorescence microscope equipped with an HCX PL APO 63x (NA = 1.4) oil objective. ImageJ/Fiji software was utilized to measure the fibers with the segmented line tool.

Data set [4] concerns colorectal cancer cells. As to the kind of experiment: Neutral comet assay. The conditions noted are these: 25 µM. How it is done:
The assay was conducted as described in [20]. Cancer cells (2–3 × 10^5) were cultured in 6-well plates and treated with DMSO or NK-A 17E-233I (25 µM) for 1 or 24 h. After treatment, the cells were harvested and suspended in Comet Low Melting Agarose (LMA; Trevigen). Once the LMA solidified, the glass slides (CometSlide) were placed in a cell lysis buffer at 4 °C overnight. Electrophoresis was performed using a comet assay electrophoresis system (21 V for 40 min). The slides were subsequently washed and stained with SYBR® Gold dye (Invitrogen) in the dark for 30 min. DNA migration was observed using a fluorescence microscope (AF6000, Leica) equipped with a HCX PL APO 63x (NA = 1.4) oil objective. Comet tail lengths were measured with ImageJ/FIJI, analyzing over 100 cells per each condition.

Data set [5] concerns colorectal cancer cells. As to the kind of experiment: RT-qPCR. The conditions noted are these: 25 µM, 48 h. How it is done: Cancer cells (0.8 × 10^6) were cultured in 60-mm Petri dishes and treated for 48 h with DMSO or NK-A 17E-233I (25 µM). The pellets were collected, and the total RNA was isolated using TRI Reagent Solution (#T9424; Sigma-Aldrich). The concentration and purity of RNA samples were assessed using a Nanodrop (Nanodrop ND-1000 spectrophotometer, Thermo Fisher) and stored at -80°C. Complementary DNA (cDNA) was generated using MultiScribe Reverse Transcriptase (#A25776; ThermoFisher Scientific), and the resulting cDNA was diluted and analyzed by qPCR using the StepOnePlus Real-Time PCR System (Applied Biosystems) with Power UP SYBR Green Master Mix (#A25741; ThermoFisher Scientific). β-actin was used as the endogenous control gene, and the fold change was calculated using the 2^−ΔΔCT method. Data processing was conducted using StepOnePlus Software for Windows, v2.3. All primer sequences were designed using the Primer 3 Plus software, validated by the Primer-BLAST tool, and submitted to Integrated DNA Technologies (IDT, Madrid, Spain). The primer sequences utilized in this study are listed below: […]
(In general: In qPCR the cycle at which signal appears reflects the starting amount.)

With `COc1cc(C)c(Oc2cc(C)cc(O)c2O)c(O)c1` [NK-A 17E-233I], the “ability to form colonies” value in the data set with colorectal cancer cells [1] (25 µM, two weeks) is given as “significantly diminished”. Also, in the data set with colorectal cancer cells [1] (LS174T: Tx 4 µM, VE-821 0.5 µM, 14 days, HCT116), the “combination with the ATR inhibitor VE-821” value is on record as “synergistic activity”. For the same compound, the “cytotoxic effects in healthy cells” value in data set [2] was “no similar effects were observed”. Also, the “speed of replication forks (CldU tracks)” value in data set [3] (25 µM, 1 h) is on record as “significantly reduced”. Besides, in data set [3] (25 µM, uridine 10 µM), the “rescue of replication fork speed by physiological uridine” value is “did not demonstrate any discernible rescue”. In data set [3] (25 µM, uridine 200 µM), the “rescue of DNA-damaging effects by excess uridine” value is listed as “rescued the DNA-damaging effects”. The “replication fork progression after washout (fork restart)” value in data set [3] (LS174T, 25 µM, 1 h then washout) is recorded as “continued to demonstrate a diminished progression rate”. Besides, the “speed of replication forks (CldU tract length)” value in data set [3] (SW620, 25 µM, 1 h) was “significantly diminished”. Moreover, the “comet tails (DNA double-strand breaks)” value with colorectal cancer cells [4] is “longer comet tails”. Besides, the “mRNA expression levels of POLD1 and POLD2” value in the data set with colorectal cancer cells [5] is reported as “reductions”.
